In BigSolDB 2.1:

Cc1c(N)cccc1C(=O)O
solubility (mole fraction)
Settings	288.15 K	293.15 K	298.15 K	303.15 K	308.15 K	313.15 K	318.15 K	323.15 K	328.15 K
in acetonitrile	0.0004	0.000499	0.000728	0.000986	0.00126	0.0017	0.00202	0.00251	0.00307
in ethanol	0.00373	0.00422	0.00496	0.00628	0.00749	0.00891	0.0105	0.0124	0.0151
in ethyl acetate	0.000961	0.00107	0.00135	0.00173	0.0022	0.00283	0.0035	0.00436	0.00524
in isobutanol	0.00112	0.00132	0.00191	0.00254	0.00322	0.00427	0.00534	0.0069	0.00839
in isopropanol	0.00196	0.00228	0.00298	0.00386	0.00494	0.00629	0.0079	0.00991	0.0123
in methanol	0.00532	0.0059	0.00682	0.00844	0.00979	0.0115	0.0136	0.0159	0.0178
in methyl acetate	0.000975	0.00127	0.00179	0.0024	0.00292	0.00347	0.00428	0.00514	0.00571
in n-butanol	0.00236	0.00269	0.00333	0.00442	0.00535	0.00659	0.0079	0.00962	0.0115
in n-propanol	0.00245	0.00277	0.00341	0.00444	0.00542	0.00672	0.00824	0.0101	0.0123
in n-propyl acetate	0.000796	0.000942	0.00109	0.00142	0.00176	0.00225	0.00286	0.00368	0.0047
in sec-butanol	0.00178	0.00209	0.00285	0.00388	0.00513	0.00675	0.00858	0.0111	0.0138
in water	0.000581	0.000588	0.00062	0.000669	0.000718	0.00079	0.000887	0.00098	0.00105
